In US5194437A, “1,4-disubstituted piperazines” (Adir et Compagnie, priority 1990, dated 1993):
pKi: −log10 of the molar value. Like-named read-outs stand apart in the source and are kept apart here.

How the values were obtained:
5-HT1A receptors [1] = target: T1, 5-HT1A receptors (Rattus norvegicus, UniProt P19327); test: Body temperature (hypothermia), agonist and antagonist activity; format: in vivo, male Wistar rats; design: from tissue; host or cells: whole animal, male Wistar rat (in vivo); conditions: for Hypothermia M.E.D.: agonist: induction of hypothermia, s.c., minimum effective dose; for ED50: rat, sc, 1 h, antagonist: inhibition of hypothermia induced by 8-OH-DPAT 0.16 mg/kg s.c., compound s.c. 60 min before test, read-out: Hypothermia ID50 (95% C.L.)
T1 sequence (P19327 1-422): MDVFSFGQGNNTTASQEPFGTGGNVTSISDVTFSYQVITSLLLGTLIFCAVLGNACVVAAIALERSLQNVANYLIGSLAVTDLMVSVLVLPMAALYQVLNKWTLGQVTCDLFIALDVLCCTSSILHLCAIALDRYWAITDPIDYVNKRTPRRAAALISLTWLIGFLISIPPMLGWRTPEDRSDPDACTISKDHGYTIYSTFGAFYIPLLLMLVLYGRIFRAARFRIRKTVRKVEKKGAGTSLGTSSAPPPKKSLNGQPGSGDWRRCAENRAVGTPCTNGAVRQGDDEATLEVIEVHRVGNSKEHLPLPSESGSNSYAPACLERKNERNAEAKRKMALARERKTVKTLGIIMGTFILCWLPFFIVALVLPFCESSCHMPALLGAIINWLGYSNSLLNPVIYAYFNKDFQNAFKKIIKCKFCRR
Experimental: (§1) The tests were carried out on male Wistar rats weighing from 200 to 220 g which had free access to food and drinking water, in standard cages.
(§2) The animals are housed individually for the hypothermia, corticosterone secretion and flat body posture tests, and in groups of three for the tail flick test.
(§3) The laboratory temperature is kept at 21°±1° C., with 60 ±5% humidity. The rats are subjected to a light/dark cycle of 12 hours/12 hours (the light cycle commencing at 7.30 a.m.).
(§4) a/ General procedure for tests of agonist and antagonist activities on 5-HT1A receptors.
(§5) The test compounds were administered subcutaneously (s.c.) 60 minutes before the start of the test, that is to say 30 minutes before the vehicle (agonist responses) or 8-OH-DPAT (antagonist responses).
(§6) In all the tests, the solvent is used in parallel as the control. The animals were allowed to rest in their cages during the time between the injections and evaluation.
(§7) For the agonist studies, the solvent was administered at a dose of 1 ml/kg s.c. 30 minutes before the start of the test. For the antagonist studies, doses of 8-OH-DPAT inducing sub-maximal responses were chosen, i.e. doses of 0.63, 0.16, 0.16 and 0.16 mg/kg s.c. for the tail flick test, the flat body posture test, the corticosterone secretion test and the hypothermia test, respectively.
The rats are immobilised and a lubricated digital thermometer (Thermistoprobe from Testotherm, Basle, Switzerland) is inserted into the rectum to a depth of 5 cm. 30 seconds after insertion, the temperature is read off a digital scale. The percentage inhibition is calculated with the aid of the formula mentioned above.
(§8) In general, after variance analysis, the results are subjected to Dunnett's test. Results are regarded as significant if p<0.05.
(§9) The doses of the test compounds are all expressed in terms of the base. Unless otherwise mentioned, all the compounds were dissolved in sterile water (to which a few drops of lactic acid are added, if necessary) and administered at a volume of 1 ml/kg s.c..

5-HT1A receptors [2] = target: T1, 5-HT1A receptors; test: Flat body posture (FBP), agonist response and antagonism of 8-OH-DPAT; format: in vivo, male Wistar rats; design: from tissue; host or cells: whole animal, male Wistar rat (in vivo); conditions: sc
Experimental: as §1, §2, §3, §4, §5, §6, §7
(§10) The same animals were employed for the evaluation of the effect of the test compounds on the FBP and for the determination of the plasma levels of CS. All the tests were carried out in the morning between 10.30 and 12.30, i.e. when the cicardian levels of CS are at their lowest.
25 minutes after the treatment (i.e. 5 minutes before decapitation), the animals are observed in their cages and the presence or absence of FBP is noted.
(§11) The presence of FBP is defined by a characteristic posture of the animal. The animal is then in a position of ventral decubitus with the hind limbs clearly in extension. 5 minutes after observation of FBP, the animals are decapitated and the trunk blood is collected in chilled tubes containing 50 μl of a 10% EDTA solution. After centrifugation at 4000 rpm, the plasma is removed and stored at -30° C. until assay.
as §8
For the dose-response for induction and inhibition of FBP, the effective doses 50 (ED50) (doses at which 50% of the animals show a response) were calculated by the method of Litchfield and Wilcoxon.
as §9

5-HT1A receptors [3] = target: T1, 5-HT1A receptors; test: Spontaneous tail flick test (STF), agonist and antagonist activity; format: in vivo, male Wistar rats; design: from tissue; host or cells: whole animal, male Wistar rat (in vivo); conditions: for Spontaneous tail flicks M.E.D.: agonist: induction of STF, s.c., minimum effective dose; for ED50: rat, sc, 1 h, antagonist: inhibition of STF induced by 8-OH-DPAT 0.63 mg/kg s.c., compound s.c. 60 min before test, read-out: Spontaneous tail flicks ID50 (95% C.L.)
Experimental: as §1, §2, §3, §4, §5, §6, §7
Tail flicks were determined in animals restrained in horizontal, opaque plastics cylinders, the animals' tails hanging freely over the edge of the laboratory bench. After a 5-minute adaptation period, the number of movements made in 5 minutes is recorded. One STF is defined as the raising of the tail to a level higher than the level of the body axis [Millan M. J. et al., J. Pharmacol. Exp. Ther., 256, 973-982 (1990)].
as §8, §9

5-HT1A receptors [4] = target: T1, 5-HT1A receptors; test: In vitro binding test, 5-HT1A receptors, [3]H-8-OH-DPAT, rat hippocampus membranes; design: Hippocampus from the brains of decapitated rats; from tissue; host or cells: rat hippocampus membranes (male Wistar); species or system rat (male Wistar); conditions: for Ki: hot ligand [3]H-8-OH-DPAT 0.4 nM, rat hippocampus membranes, 25° C., 30 minutes, read-out: Affinity (pKi) (converted)
Experimental: Hippocampus from the brains of decapitated rats was immediately frozen on dry ice and then stored at -80° C. until preparation of membranes. The tissue was homogenised at 4° C. in the appropriate buffer using a Polytron (Brinkman Instruments - Lucerne - Switzerland) and centrifuged at 20,000 rpm.
Incubation was carried out at 25° C. for 30 minutes. Non-specific binding was defined by 10 μM of 5-HT. The tests were terminated by rapid filtration by means of a Brandel harvester over glass-fibre filters pretreated with 0.1% polyethyleneimine.
The inhibitory concentration 50 values (IC50) were determined according to method 8 of Tallarida R. J. and Murray R. B., Manual of pharmacological calculations with computer programs, Springer Verlag, N.Y. (1987).
The pKi was calculated according to the formula [formula] where [L] is the concentration of the hot ligand ([3]H-8-OH-DPAT, 0.4 nM) and Kd is the apparent dissociation constant determined from saturation experiments.
The test substances were dissolved in the incubation buffer.

5-HT1A receptors [5] = target: T1, 5-HT1A receptors; test: Corticosterone secretion (CS), plasma, agonist and antagonist activity; format: in vivo, male Wistar rats; design: from tissue; host or cells: whole animal, male Wistar rat (in vivo); conditions: for Corticosterone secretion M.E.D.: agonist: induction of CS, s.c., minimum effective dose; for ED50: rat, sc, 1 h, antagonist: inhibition of CS induced by 8-OH-DPAT 0.16 mg/kg s.c., compound s.c. 60 min before test, read-out: Corticosterone secretion ID50 (95% C.L.)
Experimental: as §1, §2, §3, §4, §5, §6, §7, §10, §11
CS was determined using a radio-competitive assay for a CS-binding protein in plasma: transcortin. The latter is obtained from monkey serum. Separation of the CS-transcortin complexes from free CS was effected by means of a solution of dextran and active charcoal. The detection limit was 50 pg/tube. Intra- and inter-assay variations were 5 and 15%, respectively [cf. Rivet J. M. et al., Eur. J. Pharmacol., 183, 634-635 (1990)].
Since the base levels of CS in plasma are never zero, the following formula was used to calculate the percentage inhibition of plasmatic CS induced by 8-OH-DPAT: [formula]
as §8, §9

[6] = 1 h, read-out: Flat body posture ED50 (95% C.L.), antagonism of 8-OH-DPAT, inhibition of FBP, 8-OH-DPAT 0.16 mg/kg s.c., compound s.c. 60 min before test
[7] = induction of FBP, s.c., dose at which 50% of the animals show a response, read-out: Flat body posture ED50 (95% C.L.), agonist response

Row | Structure (SMILES) | Hypothermia M.E.D. (5-HT1A receptors [1]) | ED50 (5-HT1A receptors [1]) | ED50 (5-HT1A receptors [2]; [6]) | ED50 (5-HT1A receptors [2]; [7]) | Spontaneous tail flicks M.E.D. (5-HT1A receptors [3]) | ED50 (5-HT1A receptors [3]) | pKi (5-HT1A receptors [4]) | Corticosterone secretion M.E.D. (5-HT1A receptors [5]) | ED50 (5-HT1A receptors [5]) | Ki (5-HT1A receptors [4])
1 | c1ccc2c(c1)CC2CN1CCN(c2cccc3c2OCCO3)CC1 (racemic) [Example 1, (R,S)-4-(benzodioxan-5-yl)-1-[(benzocyclobutan-1-yl)methyl]-piperazine] | 10.0 mg/kg | 0.5 mg/kg | 0.71 mg/kg | > 10 mg/kg | > 10.0 mg/kg | 0.09 mg/kg | 8.74 | > 2.5 mg/kg | < 2.5 mg/kg | –
2 | c1ccc2c(c1)CC2CCN1CCN(c2cccc3c2OCCO3)CC1 (racemic) [Example 2, (R,S)-4-(benzodioxan-5-yl)-1-[2-(benzocyclobutan-1-yl)-ethyl]-piperazine] | 40.0 mg/kg | 0.65 mg/kg | 0.76 mg/kg | > 20 mg/kg | > 10.0 mg/kg | 0.085 mg/kg | 9.21 | 10.0 mg/kg | 0.66 mg/kg | –
3 | c1ccc2c(c1)CC2CCN1CCN(c2cccc3c2OCCCO3)CC1 (racemic) [Example 3, (R,S)-4-[benzo(1,5)dioxepin-6-yl]-1-[2-(benzocyclobutan-1-yl)-ethyl]-piperazine] | > 20.0 mg/kg | 1.64 mg/kg | 1.55 mg/kg | > 10 mg/kg | > 10.0 mg/kg | 0.32 mg/kg | – | > 10.0 mg/kg | 2.15 mg/kg | –
4 | c1ccc2c(c1)CC2CCCCN1CCN(c2cccc3c2OCCO3)CC1 (racemic) [Example 8, (R,S)-4-(benzodioxan-5-yl)-1-[4-(benzocyclobutan-1-yl)-butyl]-piperazine] | – | – | – | – | – | – | 8.80 | – | – | –
5 | c1ccc2c(c1)CC2CCCN1CCN(c2cccc3c2OCCO3)CC1 (racemic) [Example 13, (R,S)-4-(benzodioxan-5-yl)-1-[3-(benzocyclobutan-1-yl)-propyl]-piperazine] | 10.0 mg/kg | 0.21 mg/kg | 0.57 mg/kg | > 10 mg/kg | > 10.0 mg/kg | 0.13 mg/kg | – | 10.0 mg/kg | 1.27 mg/kg | –
6 | c1ccc2c(c1)CCC2CN1CCN(c2cccc3c2OCCO3)CC1 (racemic) [Example 15, (R,S)-4-(benzodioxan-5-yl)-1-[(indan-1-yl)-methyl]-piperazine] | 10.0 mg/kg | 1.53 mg/kg | ≥ 2.5 mg/kg | > 2.5 mg/kg | – | 0.085 mg/kg | 8.70 | > 2.5 mg/kg | > 2.5 mg/kg | –
7 | COc1ccc2c(c1)C(CCN1CCN(c3cccc4c3OCCO4)CC1)C2 (racemic) [Example 16, (R,S)-4-(benzodioxan-5-yl)-1-[2-(5-methoxybenzocyclobutan-1-yl)-ethyl]-piperazine] | – | – | – | – | – | – | – | – | – | 1.41 nM
8 | COc1cc2c(cc1OC)C(CCN1CCN(c3cccc4c3OCCO4)CC1)C2 (racemic) [Example 17, (R,S)-4-(benzodioxan-5-yl)-1-[2-(4,5-dimethoxybenzocyclobutan-1-yl)-ethyl]-piperazine] | – | – | – | – | – | – | – | – | – | 3.47 nM
9 | COc1cc2c(cc1OC)C(CCN1CCN(c3cccc4c3OCCO4)CC1)CC2 (racemic) [Example 19, (R,S)-4-(benzodioxan-5-yl)-1-[2-(5,6-dimethoxyindan-1-yl)-ethyl]-piperazine] | – | – | – | – | – | – | – | – | – | 1.48 nM
10 | c1ccc2c(c1)CCC2CCN1CCN(c2cccc3c2OCCO3)CC1 (racemic) [Example 22, (R,S)-4-(benzodioxan-5-yl)-1-[2-(indan-1-yl)-ethyl]-piperazine] | > 40.0 mg/kg | 1.19 mg/kg | 1.03 mg/kg | > 10 mg/kg | > 10.0 mg/kg | 0.74 mg/kg | – | > 10.0 mg/kg | 1.92 mg/kg | –
11 | c1ccc2c(c1)CCC2CCCN1CCN(c2cccc3c2OCCO3)CC1 (racemic) [Example 23, (R,S)-4-(benzodioxan-5-yl)-1-[3-(indan-1-yl)-propyl]piperazine] | 5.0 mg/kg | 0.4 mg/kg | 0.29 mg/kg | 10 mg/kg | – | 0.56 mg/kg | – | > 2.5 mg/kg | < 2.5 mg/kg | –
12 | C1=C(CCN2CCN(c3cccc4c3OCCO4)CC2)c2ccccc2C1 [Example 18, 4-(benzodioxan-5-yl)-1-[2-(ind-1-en-1-yl)-ethyl]-piperazine] | – | – | – | – | – | – | 9.09 | – | – | –
